From ChEMBL document CHEMBL1151369, “Antitumor agents. 39. Bruceantinoside-A and -B, novel antileukemic quassinoid glucosides from Brucea antidysenterica” (1981)

Columns and labels:
Type in all cases: functional
P388 [1] = test: In vivo antileukemic activity against mouse P388 cells at 10 mg/kg relative to control
P388 [2] = test: In vivo antileukemic activity against mouse P388 cells at 1 mg/kg relative to control
P388 [3] = test: In vivo antileukemic activity against mouse P388 cells at 0.5 mg/kg relative to control
P388 [4] = test: In vivo antileukemic activity against mouse P388 cells at 6 mg/kg relative to control
P388 [5] = test: In vivo antileukemic activity against mouse P388 cells at 20 mg/kg relative to control

Row | SMILES | T/C (P388 [1]) [%] | T/C (P388 [2]) [%] | T/C (P388 [3]) [%] | T/C (P388 [4]) [%] | T/C (P388 [5]) [%]
1 | COC(=O)[C@]12OC[C@@]34[C@H](C[C@H]5[C@H](C)C(=O)C(O[C@@H]6O[C@H](CO)[C@@H](O)[C@H](O)[C@H]6O)=C[C@]5(C)[C@H]3[C@@H](O)[C@@H]1O)OC(=O)[C@H](OC(=O)/C=C(\C)C(C)C)[C@@H]24 [BRUCEANTINOSIDE A] | 152 | 106 | 110 | 118 | 172
2 | COC(=O)[C@]12OC[C@@]34[C@H](C[C@H]5C(C)=C(O[C@@H]6O[C@H](CO)[C@@H](O)[C@H](O)[C@H]6O)C(=O)C[C@]5(C)[C@H]3[C@@H](O)[C@@H]1O)OC(=O)[C@H](OC(=O)/C=C(\C)C(C)C)[C@@H]24 [BRUCEANTINOSIDE B] | 132 | – | – | – | 160
